Measured values from ChEMBL document CHEMBL1275384, “Structure-activity relationships of benzimidazole-based selective inhibitors of the mitogen activated kinase-5 signaling pathway” (2010).

How the values were obtained:
[1] = target: T1, Dual specificity mitogen-activated protein kinase kinase 5 (Homo sapiens) (UniProt Q13163); settings: HEK293, at 10 µM;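 note: MEK5 activity stimulated by EGF, read out as phospho-ERK5 on Western blot after 1 h treatment, expressed relative to control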
T1 sequence (whole entry): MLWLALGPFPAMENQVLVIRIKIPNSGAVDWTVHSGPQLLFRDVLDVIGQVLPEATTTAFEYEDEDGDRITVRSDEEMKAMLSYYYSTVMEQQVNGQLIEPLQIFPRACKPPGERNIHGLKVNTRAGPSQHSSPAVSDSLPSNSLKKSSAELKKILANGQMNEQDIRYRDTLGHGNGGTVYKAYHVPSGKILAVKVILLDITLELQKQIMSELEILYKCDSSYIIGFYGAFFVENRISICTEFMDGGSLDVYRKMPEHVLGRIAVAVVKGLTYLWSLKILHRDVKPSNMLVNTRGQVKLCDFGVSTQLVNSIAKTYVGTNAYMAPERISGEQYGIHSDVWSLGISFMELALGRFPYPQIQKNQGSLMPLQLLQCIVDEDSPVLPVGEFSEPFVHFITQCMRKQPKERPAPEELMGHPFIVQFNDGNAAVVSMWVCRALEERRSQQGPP
Description: Inhibition of EGF-induced MEK5 activity in HEK293 cells assessed as phosphorylated ERK5 level at 10 uM after 1 hr by Western blotting relative to control

[2] = target: Dual specificity mitogen-activated protein kinase kinase; MEK1/2 (Homo sapiens) (UniProt P36507+Q02750); settings: HEK293, at 10 µM
Description: Inhibition of EGF-induced MEK1/2 activity in HEK293 cells assessed as phosphorylated ERK1/2 level at 10 uM after 1 hr by Western blotting relative to control

HOP-62 = test: Cytotoxicity against human HOP62 cells at 10 uM assessed as cell growth relative to control; assay type: functional; settings: read-out: Activity
MDA-N = test: Cytotoxicity against human MDA-N cells at 10 uM assessed as cell growth relative to control; assay type: functional; settings: read-out: Activity
SF-539 = test: Cytotoxicity against human SF539 cells at 10 uM assessed as cell growth relative to control; assay type: functional; settings: read-out: Activity
IGROV-1 = test: Cytotoxicity against human IGROV1 cells at 10 uM assessed as cell growth relative to control; assay type: functional; settings: read-out: Activity
A498 = test: Cytotoxicity against human A498 cells at 10 uM assessed as cell growth relative to control; assay type: functional; settings: read-out: Activity
NCI/ADR-RES = test: Cytotoxicity against human NCI/ADR-RES cells at 10 uM assessed as cell growth relative to control; assay type: functional; settings: read-out: Activity
HL-60(TB) = test: Cytotoxicity against human HL-60(TB) cells at 10 uM assessed as cell growth relative to control; assay type: functional; settings: read-out: Activity
MDA-MB-231 = test: Cytotoxicity against human MDA-MB-231 cells at 10 uM assessed as cell growth relative to control; assay type: functional; settings: read-out: Activity
OVCAR-5 = test: Cytotoxicity against human OVCAR5 cells at 10 uM assessed as cell growth relative to control; assay type: functional; settings: read-out: Activity
NCI-H522 = test: Cytotoxicity against human NCI-H522 cells at 10 uM assessed as cell growth relative to control; assay type: functional; settings: read-out: Activity
SK-OV-3 = test: Cytotoxicity against human SKOV3 cells at 10 uM assessed as cell growth relative to control; assay type: functional; settings: read-out: Activity
RXF 393 = test: Cytotoxicity against human RXF393 cells at 10 uM assessed as cell growth relative to control; assay type: functional; settings: read-out: Activity
PC-3 = test: Cytotoxicity against human PC3 cells at 10 uM assessed as cell growth relative to control; assay type: functional; settings: read-out: Activity
K562 = test: Cytotoxicity against human K562 cells at 10 uM assessed as cell growth relative to control; assay type: functional; settings: read-out: Activity
NCI-H23 = test: Cytotoxicity against human NCI-H23 cells at 10 uM assessed as cell growth relative to control; assay type: functional; settings: read-out: Activity
M14 = test: Cytotoxicity against human M14 cells at 10 uM assessed as cell growth relative to control; assay type: functional; settings: read-out: Activity
CCRF-CEM = test: Cytotoxicity against human CCRF-CEM cells at 10 uM assessed as cell growth relative to control; assay type: functional; settings: read-out: Activity
SK-MEL-5 = test: Cytotoxicity against human SK-MEL-5 cells at 10 uM assessed as cell growth relative to control; assay type: functional; settings: read-out: Activity
SN12C = test: Cytotoxicity against human SN12C cells at 10 uM assessed as cell growth relative to control; assay type: functional; settings: read-out: Activity
U-251 = test: Cytotoxicity against human U251 cells at 10 uM assessed as cell growth relative to control; assay type: functional; settings: read-out: Activity
BT-549 = test: Cytotoxicity against human BT549 cells at 10 uM assessed as cell growth relative to control; assay type: functional; settings: read-out: Activity
HCT-116 = test: Cytotoxicity against human HCT116 cells at 10 uM assessed as cell growth relative to control; assay type: functional; settings: read-out: Activity
SNB-19 = test: Cytotoxicity against human SNB19 cells at 10 uM assessed as cell growth relative to control; assay type: functional; settings: read-out: Activity
DU-145 = test: Cytotoxicity against human DU145 cells at 10 uM assessed as cell growth relative to control; assay type: functional; settings: read-out: Activity
SNB-75 = test: Cytotoxicity against human SNB75 cells at 10 uM assessed as cell growth relative to control; assay type: functional; settings: read-out: Activity

Dual specificity mitogen-activated protein kinase kinase; MEK1/2 (Homo sapiens), sequence (P36507 whole entry, looked up): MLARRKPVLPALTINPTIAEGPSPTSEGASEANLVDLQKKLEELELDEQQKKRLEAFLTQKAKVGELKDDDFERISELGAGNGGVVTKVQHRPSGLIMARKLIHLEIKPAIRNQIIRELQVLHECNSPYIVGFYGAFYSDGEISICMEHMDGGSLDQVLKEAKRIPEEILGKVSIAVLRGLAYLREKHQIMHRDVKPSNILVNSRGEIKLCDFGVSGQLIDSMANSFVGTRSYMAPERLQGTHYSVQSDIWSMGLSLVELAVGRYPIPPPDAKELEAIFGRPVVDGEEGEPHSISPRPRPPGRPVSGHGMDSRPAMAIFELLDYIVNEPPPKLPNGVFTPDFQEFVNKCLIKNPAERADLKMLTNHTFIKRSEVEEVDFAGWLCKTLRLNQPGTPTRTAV
Dual specificity mitogen-activated protein kinase kinase; MEK1/2 (Homo sapiens), sequence (Q02750 whole entry, looked up): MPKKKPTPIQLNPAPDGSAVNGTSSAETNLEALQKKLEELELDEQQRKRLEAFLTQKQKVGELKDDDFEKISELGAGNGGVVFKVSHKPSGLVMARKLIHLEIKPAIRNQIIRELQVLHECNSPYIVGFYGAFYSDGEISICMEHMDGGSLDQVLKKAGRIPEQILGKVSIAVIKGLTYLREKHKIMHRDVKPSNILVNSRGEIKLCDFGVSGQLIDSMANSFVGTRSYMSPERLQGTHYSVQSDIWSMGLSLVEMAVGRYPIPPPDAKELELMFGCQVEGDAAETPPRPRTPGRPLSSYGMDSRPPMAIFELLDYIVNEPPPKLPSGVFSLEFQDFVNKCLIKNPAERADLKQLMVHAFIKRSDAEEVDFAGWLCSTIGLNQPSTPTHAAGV

Compound: CCCCOc1cc(NCc2ccccc2)c2ncn(C(C)C)c2c1
- inhibition [1]: 5%

Compound: CCOCCOc1cc(NCc2ccccc2)c2ncn(C(C)C)c2c1
- inhibition [2]: 100%
- inhibition [1]: 75%

Compound: CC(C)Oc1cc(NCc2ccccc2)c2ncn(C(C)C)c2c1
- inhibition [2]: 0%
- inhibition [1]: 22%

Compound: CC(C)n1cnc2c(NCc3ccccc3)cc(OCCCN3CCOCC3)cc21
- inhibition [2]: 92%
- inhibition [1]: 0%

Compound: COc1cc(N)c2c(c1)N(C(C)C)CN2
- inhibition [2]: 18%
- inhibition [1]: 42%

Compound: CCOc1cc(NCc2ccccc2)c2ncn(C(C)C)c2c1
- inhibition [1]: 63%

Compound: CN1CCN(c2ccc3[nH]c(-c4ccc5[nH]c(-c6ccc(O)cc6)nc5c4)nc3c2)CC1 [HOECHST 33258]
- growth at 10 µM (HOP-62): -4%
- growth at 10 µM (MDA-N): -5.06%
- growth at 10 µM (SF-539): -4%
- growth at 10 µM (IGROV-1): -4%
- growth at 10 µM (A498): -4%
- growth at 10 µM (NCI/ADR-RES): -4%
- growth at 10 µM (HL-60(TB)): -4.62%
- growth at 10 µM (MDA-MB-231): -4%
- growth at 10 µM (OVCAR-5): -4%
- growth at 10 µM (NCI-H522): -5.52%
- growth at 10 µM (SK-OV-3): -4%
- growth at 10 µM (RXF 393): -4%
- growth at 10 µM (PC-3): -4%
- growth at 10 µM (K562): -5.22%
- inhibition [2]: 22%
- growth at 10 µM (NCI-H23): -4%
- growth at 10 µM (M14): -4%
- growth at 10 µM (CCRF-CEM): -4.89%
- growth at 10 µM (SK-MEL-5): -4.01%
- growth at 10 µM (SN12C): -4%
- growth at 10 µM (U-251): -4%
- growth at 10 µM (BT-549): -4%
- growth at 10 µM (HCT-116): -4.52%
- inhibition [1]: 30%
- growth at 10 µM (SNB-19): -4%
- growth at 10 µM (DU-145): -4%
- growth at 10 µM (SNB-75): -4%

Compound: N#CC(=C(/N)Sc1ccccc1N)/C(C#N)=C(\N)Sc1ccccc1N
- inhibition [1]: 27%

Compound: CCCOc1cc(NCc2ccccc2)c2ncn(C(C)C)c2c1
- inhibition [1]: 24%
